The results in this text go back to patent US9204644B2, “Nanoparticles compositions containing polymers and anthranilic acid diamide insecticides for propagule coating” (priority 2011, dated 2015).

This assay has as its system 2nd instar larva of Spodoptera frugiperda. Put plainly: Laboratory test of larval mortality on maize leaves. The format is in vivo.

On to `CNC(=O)c1cc(Cl)cc(C)c1NC(=O)c1cc(Br)nn1-c1ncccc1Cl` [Compound 2, 3-bromo-N-[4-chloro-2-methyl-6-[(methylamino)carbonyl]phenyl]-1-(3-chloro-2-pyridinyl)-1H-pyrazole-5-carboxamide], for which the “concentration in leaf tissue needed to achieve 100% mortality within 72 h” value is listed as 0.037 micrograms per g of tissue and the “concentration in leaf tissue resulting in 50% mortality within 72 h” value is given as 0.033 micrograms per g of leaf tissu.
